We go through one compound from PMC12333015, “Profiling the Impact of mGlu7/Elfn1 Protein Interactions on the Pharmacology of mGlu7 Allosteric Modulators” (ACS Chemical Neuroscience, 2025).

Molecules are shown by their SMILES. pEC50: −log10 of the molar value.

One assay has as its target T1, rat mGlu7 (Rattus norvegicus, UniProt P35400).
T1 construct: expressed in transfected cells; host or cells: HEK293A cells stably expressing mGlu7 and GIRK1/2
The assay is described as follows: Thallium flux assay, mGlu7/GIRK HEK293 cells cocultured with pcDNA3 vector control cells. The following applies: L-AP4 pEC50 ± SEM, pcDNA, DMSO vehicle. Format: cell-based. The text has this: We began our evaluation of mGlu7 ligands in the presence and absence of Elfn1 by using a coculture system as previously described , with several modifications (Figure ). Cells expressing rat mGlu7 and coexpressing G protein inwardly rectifying potassium (GIRK) channels 1 and 2 were cocultured with cells expressing either an empty pcDNA3 vector control or a plasmid containing Elfn1 in the pcDNA3 backbone. We then evaluated the activity of the orthosteric agonist L-AP4 and measured effects on maximal response and pEC50. All responses were normalized to the maximal effect of L-AP4 in the presence of the pcDNA3 control plasmid.
2 Assay design and workflow. (Left panel) Cells expressing rat mGlu7/GIRK (pink) were cocultured with pcDNA3 (blue) or Elfn1 (purple). […] (Right panel) The effect on the concentration–response curve in the presence (purple) or absence (blue) of Elfn1 can be seen by a change in efficacy, potency, and/or basal response.
HEK293A cells stably expressing mouse Elfn1 or pcDNA3 were maintained in growth medium containing 90% Dulbecco’s Modified Eagle Media (DMEM), 10% fetal bovine serum (FBS), 100 units/mL penicillin/streptomycin, 20 mM HEPES, 1 mM sodium pyruvate, 2 mM L-glutamine, 1× nonessential amino acids, and 700 μg/mL G418 sulfate. HEK mGlu7/GIRK cells were maintained in a growth medium with 90% DMEM/F12, 10% dialyzed FBS, 100 units/mL penicillin/streptomycin, 20 mM HEPES, 1 mM sodium pyruvate, 2 mM L-glutamine, 1× nonessential amino acids, 700 μg/mL G418 sulfate, and 600 ng/mL puromycin. All cell culture reagents were purchased from Invitrogen (Carlsbad, CA).
Thallium flux assays were performed as previously described. A mixture of HEK293A mGlu7/GIRK cells and pcDNA3 or Elfn1-expressing HEK293A cells (5000/15,000 cells/20 μL/well for agonist and PAM experiments; 7500/15,000 cells/20 μL/well for NAM experiments) was seeded in 384-well, amine-coated assay plates (Greiner Bio-One, Monroe, NC). Cells were incubated overnight in a humidified 5% CO2 cell culture incubator at 37 °C. […] Following a 1 h incubation at room temperature, the dye loading solution was replaced with 20 μL/well assay buffer and the plates were loaded into a Hamamatsu FDSS 7000 (Bridgewater, NJ). […] Thallium flux data were analyzed by first dividing each point in each wave by the first point in that wave and then subtracting the average of the vehicle control response. The slopes of these vehicle control-subtracted waves were calculated over ten data points beginning 2 s after thallium stimulus addition and fit to a three-parameter logistic equation in GraphPad Prism (La Jolla, CA). In most cases, the final data were normalized to the response of the mGlu7/pcDNA3 with vehicle and 5 mM L-AP4 unless otherwise noted. Potency (pEC50) and maximum responses (E max) induced by compounds were determined using a four-parameter logistical equation in Prism. Basal activity was calculated with data points at the three lowest test concentrations. Maximum activity was calculated with data points at two highest concentrations. All experiments were replicated at least three times in duplicate or triplicate.

Assay [1] deals with pyramidal cell to SST-IN synapses in the prefrontal cortex. The assay is described as follows: Ex vivo whole-cell electrophysiology, eEPSCs recorded from SST-INs in prefrontal cortex slices. Type of assay: cell-based, mouse. The following applies: 30 μM L-AP4 alone, bath applied. The text has this:
Shown in Figure A are representative traces of eEPSCs recorded from SST-INs in response to 5-pulse stimulation with baseline in black, illustrating the characteristic facilitating nature of pyramidal cell (PYR) to SST-IN synapses.
Transgenic mice (both male and female) expressing tdTomato fluorescent protein in SST-INs were used in this study. They were generated by crossing female homozygous SST-Cre (Sst^tm2.1(cre)Zjh/J, Stock #: 013044, Jackson Laboratories) with male homozygous Ai9 mice (B6;Cg-Gt(Rosa)-26Sor^tm9(CAG‑tdTomato)Hze/J, Stock #: 007909, Jackson Laboratories). All animals were group housed with food and water available ad libitum, kept under a 12 h light/dark cycle with lights on from 6:00 AM to 6:00 PM, and were used for experiments during the light phase. All of the experimental procedures were approved by the Vanderbilt University Animal Care and Use committee and followed the guidelines set forth by the Guide for the Care and Use of Laboratory Animals. […] Whole cell recordings were made from visually identified, fluorescence-labeled SST-INs in layer V of PFC slices under the upright microscope. […] Excitatory postsynaptic currents (EPSCs) were recorded from layer V SST-INs at a holding potential of −80 mV and evoked by electrical stimulation (100 μs duration, applied every 15 s) through a concentric bipolar stimulating electrode placed around 100–150 μm from the recorded cell. The holding potential of −80 mV under voltage clamp is closed to the calculated reversal potential of Cl^– and thus the EPSCs recorded in the present studies had minimal GABAA-mediated component. Electrical stimulation applied near the recorded cell in the cortex presumably activates the local neurons preferentially. […] Data were analyzed using Clampfit 10 (Molecular Devices), Excel (Microsoft), and Prism (GraphPad Software), and presented as mean ± SEM. […]

T1 sequence (P35400 35-915): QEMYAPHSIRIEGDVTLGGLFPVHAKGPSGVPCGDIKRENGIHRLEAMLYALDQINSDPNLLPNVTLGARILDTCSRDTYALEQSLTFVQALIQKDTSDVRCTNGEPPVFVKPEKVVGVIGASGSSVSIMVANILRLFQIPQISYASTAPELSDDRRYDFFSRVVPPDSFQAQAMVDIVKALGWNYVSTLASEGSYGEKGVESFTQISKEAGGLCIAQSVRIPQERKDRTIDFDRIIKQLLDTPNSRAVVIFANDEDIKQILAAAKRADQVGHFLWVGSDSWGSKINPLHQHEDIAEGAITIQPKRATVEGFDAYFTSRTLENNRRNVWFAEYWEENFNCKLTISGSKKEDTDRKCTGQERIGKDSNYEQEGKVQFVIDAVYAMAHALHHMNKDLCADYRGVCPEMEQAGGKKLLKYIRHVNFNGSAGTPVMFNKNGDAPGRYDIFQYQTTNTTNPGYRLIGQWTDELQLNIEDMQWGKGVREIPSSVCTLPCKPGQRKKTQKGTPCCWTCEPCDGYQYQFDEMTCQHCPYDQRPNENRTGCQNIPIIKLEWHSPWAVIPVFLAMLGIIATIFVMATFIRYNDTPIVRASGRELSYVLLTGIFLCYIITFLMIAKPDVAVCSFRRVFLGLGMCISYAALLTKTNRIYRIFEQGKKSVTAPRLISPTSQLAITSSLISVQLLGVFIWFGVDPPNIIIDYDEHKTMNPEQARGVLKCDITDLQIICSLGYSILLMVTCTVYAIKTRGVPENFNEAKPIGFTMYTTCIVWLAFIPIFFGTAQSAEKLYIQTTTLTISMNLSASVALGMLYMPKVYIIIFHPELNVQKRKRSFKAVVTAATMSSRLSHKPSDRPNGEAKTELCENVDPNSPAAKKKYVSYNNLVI

As a reminder, the pEC50 is the EC50 on a negative log10 scale, so that one unit is a factor of ten. Read a low pEC50 as a large EC50. As for `N[C@@H](CCP(=O)(O)O)C(=O)O` [L-AP4, L-2-amino-4-phosphonobutyric acid, reference compound], the pEC50 on rat mGlu7 (agonist alone (DMSO row of Table 2)) was 3.71; on rat mGlu7 (agonist alone (DMSO row of Table S1)), 3.62. In addition, in assay [1], the “effect on eEPSC amplitude” value was “reduced eEPSC amplitude”.
